# Source: ChEMBL document CHEMBL1121692, “Synthesis of fluorine-containing peptides. Analogues of angiotensin II containing hexafluorovaline” (J Med Chem, 1981)
# Residues, ends and D or L forms follow the SMILES beside them.
# Species: Rattus norvegicus
# Assay: Agonist activity relative to angiotensin II in uterine contraction was estimated in rat using rat oxytocic assay
row,SMILES,Relative activity
1,CC(C)[C@H](NC(=O)[C@H](CCCN=C(N)N)NC(=O)[C@@H](N)CC(=O)O)C(=O)N[C@@H](Cc1ccc(O)cc1)C(=O)N[C@H](C(=O)N[C@@H](Cc1c[nH]cn1)C(=O)N1CCC[C@H]1C(=O)N[C@@H](Cc1ccccc1)C(=O)O)C(C(F)(F)F)C(F)(F)F (HELM PEPTIDE1{D.R.V.Y.[O=C([C@@H](N[*:1])C(C(F)(F)F)C(F)(F)F)[*:2]].H.P.F}$$$$V2.0),133%
2,CC(C)[C@H](NC(=O)[C@H](CCCN=C(N)N)NC(=O)[C@@H](N)CC(=O)O)C(=O)N[C@@H](Cc1ccc(O)cc1)C(=O)N[C@@H](C(=O)N[C@@H](Cc1c[nH]cn1)C(=O)N1CCC[C@H]1C(=O)N[C@@H](Cc1ccccc1)C(=O)O)C(C(F)(F)F)C(F)(F)F (HELM PEPTIDE1{D.R.V.Y.[O=C([C@H](N[*:1])C(C(F)(F)F)C(F)(F)F)[*:2]].H.P.F}$$$$V2.0),<1%
